Test results as given in ChEMBL document CHEMBL5727881, “Pyridone amides as modulators of sodium channels” (2020).
pIC50: −log10 of the molar value.

Test: Electrophysiology Assay: Patch clamp electrophysiology was used to assess the efficacy and selectivity of sodium channel blockers in dorsal root ganglion neurons. Rat neurons were isolated from the dorsal root ganglions and maintained in culture for 2 to 10 days in the presence of NGF (50 ng/ml) (culture media consisted of NeurobasalA supplemented with B27, glutamine and antibiotics). Small diameter neurons (nociceptors, 8-12 μm in diameter) were visually identified and probed with fine tip glass electrodes connected to an amplifier (Axon Instruments). The “voltage clamp” mode was used to assess the compound's IC50 holding the cells at −60 mV. In addition, the “current clamp” mode was employed to test the efficacy of the compounds in blocking action potential generation in response to current injections. The results of these experiments contributed to the definition of the efficacy profile of the compounds.

Structure (SMILES): COc1cc(C)ccc1Oc1ccc(OC(F)(F)F)cc1C(=O)Nc1cc[nH]c(=O)c1
- pIC50: 7.17

Structure (SMILES): O=C(Nc1cc[nH]c(=O)c1)c1ccc(C(F)(F)F)cc1O[C@@H]1CC2CCC1C2 (stereo not given in full)
- pIC50: 6.12

Structure (SMILES): O=C(Nc1ccn(CCO)c(=O)c1)c1ccc(C(F)(F)F)cc1Oc1ccc(F)cc1
- pIC50: 5.55

Structure (SMILES): COc1ccc(Oc2ccc(F)cc2C(=O)Nc2cc[nH]c(=O)c2)c(C)c1
- pIC50: 6.48

Structure (SMILES): COc1cc(Oc2cc(C(F)(F)F)ccc2C(=O)Nc2cc[nH]c(=O)c2)ccc1F
- pIC50: 7.59
